Results on 23 compounds are retold here after patent US6140051A, “Fluorescent dibenzazole derivatives and methods related thereto” (priority 1998, dated 2000).

The conditions of series [1]: background, known fluorophores; cited from earlier work.
Series [2] is described as follows: pH dependence of fluorescence. The series is classed as physicochemical. The text has this:
To make the phenolic fluorophore fully fluorescent at a lower pH (7-8) to achieve the best performance for some enzymatic and biological assays, some fluorophores are synthesized with electronegative substituent(s), e.g., chloride, bromide, iodide, fluoride, trifluoromethyl, --SO3 H, etc. These substituted derivatives may be analyzed at different pH's for their fluorescent efficiency. The dependence of fluorescent intensity on pH for some preferred compounds of the invention, and comparative compounds, are shown in FIG. 3. Compared to the unsubstituted compound, BBT (also shown in the graph, U.S. Pat. No. 5,424,440), the electronegatively substituted BBT derivatives, especially CIBBT, can reach their maximum fluorescence at a pH very close to physiological conditions (pH 7-8). The pH dependent characteristic change of fluorescent intensity of these fluorophores can also find applications as pH titration fluorescent indicators.

The conditions of series [3]: cited from earlier work.
The conditions of series [4]: phenolic hydroxyl; cited from earlier work.
The nature of series [5]: Fluorescence properties measured at pH about 10 in AttoPhos buffer. The series is classed as physicochemical. As for the experimental part: * The fluorescence is measured at pH about 10 in AttoPhos buffer (JBL
Scientific, San Luis Obispo, CA).
In the following examples, NMR data were measured by a Bruker AC-300 300 MHz instrument; mass spectra were obtained on a VG Platform, Fisons Instruments; fluorescence data were obtained from a Perkin Elmer Luminescence Spectrometer, Model LS50B.

The target in a further series is T1, β-galactosidase (Escherichia coli, UniProt P00722).
T1 construct: purchased ICN Biomedicals, Inc. 104939; host or cells: E. Coli
The series is described as follows: Enzymatic activity test, β-galactosidase. The series is classed as biochemical, E. Coli. The following applies: 1 mg in 10 ml 0.1 M potassium phosphate buffer pH 7, 10 mM DTT, 1 mM MgCl2. As for the experimental part: (2) β-Galactosidase: 1 mg BEBTESG was dissolved in 10 ml 0.1 M potassium phosphate buffer (pH 7) containing 10 mM DTT and 1 mM MgCl2 and a small quantity of β-galactosidase (Cat. No. 104939, E. Coli, ICN Biomedicals, Inc.) was added.

Series [6] addresses T2, alkaline phosphatase (Calf Intestine) (Bos taurus, UniProt P19111).
T2 construct: purchased Calzyme, San Luis Obispo, Calif; host or cells: calf intestine
The series is described as follows: Enzymatic activity test, alkaline phosphatase. The series is classed as biochemical. The following applies: 1 mg in 10 ml AttoPhos buffer. As to the method:
(1) Alkaline Phosphatase: 1 mg BEBTP was dissolved in 10 ml AttoPhos buffer (JBL Scientific, San Luis Obispo, Calif.). A small quantity of alkaline phosphatase (Calf Intestine, Calzyme, San Luis Obispo, Calif.) was added.

The test system of series [7] is Esterase from Porcine Liver. The series is described as follows: Esterase activity towards BBT acyl derivatives. The format is biochemical. Conditions: 100 mM Tris HCl pH 8.0; Ex 440 nm, Em 550 nm; FIG. 4. As to the method:
Buffer: 100 mM Tris. HCl, pH 8.0.
Substrate Stock Solution: 2 mM acyl BBT dioxane solution.
Enzymes: All enzymes were from Sigma: Esterase from Porcine Liver(E3 128); Lipase from Pseudomonas species (L9518); Lipase from Candida cylindracea (L1754). Dilute the enzyme by the buffer to the desired concentration before use.
Instrument: Squoia-Tumer Fluorometer, Model 450. Excitation at 440 nm and Emission at 550 nm.
1. Set the Fluorometer Gain to 200.
2. Set the Fluorometer Zero to 0 with the Tris buffer.
3. Set the Fluorometer Span to 1000 using JBL 10 ng BBT (FEY) standard solution.
4. Pipette 980 μl buffer to a glass test tube (Baxter, Cat. No. T1290-3).
5. Add 10 μl substrate stock solution and mix well.
6. Measure and record the blank reading.
7. Add 10 μl enzyme solution.
8. Take fluorescence reading every one minute for 3 minutes and record.
9. Calculate the fluorescence unit change (FU/min) by subtracting the first-minute reading from the second-minute reading.
10. Plot FU/min vs. enzyme concentration, u/L (FIG. 4 and FIG. 5).

Series [8] has as its system Lipase from Pseudomonas species. The series is described as follows: Lipase activity towards BBT acyl derivatives. The series is classed as biochemical. The following applies: 100 mM Tris HCl pH 8.0; Ex 440 nm, Em 550 nm; FIG. 5; text says 'lipases'. As for the experimental part: (3) Esterase and Lipase: Buffer: 100 mM Tris. HCl, pH 8.0. Substrate Stock Solution: 2 mM acyl BBT dioxane solution. Enzymes: All enzymes were from Sigma: Esterase from Porcine Liver(E3 128); Lipase from Pseudomonas species ([…]); Lipase from Candida cylindracea ([…]). Dilute the enzyme by the buffer to the desired concentration before use. Instrument: Squoia-Tumer Fluorometer, Model 450. Excitation at 440 nm and Emission at 550 nm. Procedure: 1. Set the Fluorometer Gain to 200. 2. Set the Fluorometer Zero to 0 with the Tris buffer. 3. Set the Fluorometer Span to 1000 using JBL 10 ng BBT (FEY) standard solution. 4. Pipette 980 μl buffer to a glass test tube (Baxter, Cat. No. T1290-3). 5. Add 10 μl substrate stock solution and mix well. 6. Measure and record the blank reading. 7. Add 10 μl enzyme solution. 8. Take fluorescence reading every one minute for 3 minutes and record. 9. Calculate the fluorescence unit change (FU/min) by subtracting the first-minute reading from the second-minute reading. 10. Plot FU/min vs. enzyme concentration, u/L (FIG. 4 and FIG. 5).

A short description of series [9]: Fluorescence of labeled oligonucleotide on DNA electrophoresis gel. Conditions: versus non-labeled oligonucleotide. The text has this:
(4) Fluorescence: The labeled BBTE-[…] (SEQ ID NO: 1) was separated on a standard DNA electrophoresis gel, along with the non-labeled […] (SEQ ID NO: 1).

Structures can show the parent of a compound that is named as a salt. Where two headings read alike, the source gives them in different places. {BBTE} = label added with the BBTE phosphoramidite

T1 sequence (P00722 2-1024): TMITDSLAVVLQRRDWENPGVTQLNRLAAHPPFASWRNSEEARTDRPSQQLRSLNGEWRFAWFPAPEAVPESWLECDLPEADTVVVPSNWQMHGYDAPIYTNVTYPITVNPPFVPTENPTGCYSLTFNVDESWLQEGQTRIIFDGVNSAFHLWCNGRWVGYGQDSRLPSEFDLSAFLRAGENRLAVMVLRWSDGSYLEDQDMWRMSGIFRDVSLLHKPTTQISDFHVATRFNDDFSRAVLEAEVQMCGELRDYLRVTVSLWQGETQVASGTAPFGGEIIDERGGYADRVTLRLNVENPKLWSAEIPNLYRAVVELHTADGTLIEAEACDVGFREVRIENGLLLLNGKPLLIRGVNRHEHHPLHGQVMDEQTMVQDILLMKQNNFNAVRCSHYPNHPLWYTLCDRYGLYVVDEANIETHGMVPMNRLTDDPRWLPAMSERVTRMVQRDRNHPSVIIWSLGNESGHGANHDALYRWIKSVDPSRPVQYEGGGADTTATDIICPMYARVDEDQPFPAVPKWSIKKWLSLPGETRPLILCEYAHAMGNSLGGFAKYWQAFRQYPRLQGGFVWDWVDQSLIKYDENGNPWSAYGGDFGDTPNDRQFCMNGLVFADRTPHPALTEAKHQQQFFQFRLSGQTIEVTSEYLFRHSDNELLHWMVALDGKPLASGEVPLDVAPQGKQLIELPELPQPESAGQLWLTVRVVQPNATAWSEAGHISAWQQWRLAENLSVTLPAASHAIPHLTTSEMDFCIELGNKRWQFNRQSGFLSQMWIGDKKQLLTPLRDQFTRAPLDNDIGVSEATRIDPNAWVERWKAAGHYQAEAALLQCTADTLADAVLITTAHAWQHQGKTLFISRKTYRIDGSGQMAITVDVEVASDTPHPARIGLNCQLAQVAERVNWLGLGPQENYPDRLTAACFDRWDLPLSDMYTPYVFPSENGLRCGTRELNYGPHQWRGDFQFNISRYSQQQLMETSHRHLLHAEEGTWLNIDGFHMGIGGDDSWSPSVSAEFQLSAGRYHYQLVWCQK
T2 sequence (P19111 20-506 limits assumed): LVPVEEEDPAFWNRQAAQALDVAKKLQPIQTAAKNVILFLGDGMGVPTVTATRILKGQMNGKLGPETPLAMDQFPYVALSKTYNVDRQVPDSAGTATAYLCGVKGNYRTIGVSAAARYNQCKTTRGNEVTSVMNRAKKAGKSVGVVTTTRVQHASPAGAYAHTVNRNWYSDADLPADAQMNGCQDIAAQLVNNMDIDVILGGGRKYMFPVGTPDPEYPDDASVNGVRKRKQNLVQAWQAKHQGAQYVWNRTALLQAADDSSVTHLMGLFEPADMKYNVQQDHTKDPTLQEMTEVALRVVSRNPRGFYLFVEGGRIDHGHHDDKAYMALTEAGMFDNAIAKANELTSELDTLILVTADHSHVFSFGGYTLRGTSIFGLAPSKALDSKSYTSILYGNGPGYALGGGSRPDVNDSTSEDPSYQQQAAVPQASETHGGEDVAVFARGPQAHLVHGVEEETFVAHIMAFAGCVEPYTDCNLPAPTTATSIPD

Regarding `Oc1ccc2nc(-c3ccccc3)oc2c1` [2-Phenyl-6-hydroxybenzoxazole], in [1], the “Stokes Shift” value is given as 110 nm, the “λEM (wavelength of maximum emission)” value is 460 nm and the “λEX (wavelength of maximum excitation)” value was 370 nm.
`Cc1cc(=O)oc2cc(O)ccc12` [4-Methylumbelliferone]: in series [1], the “Stokes Shift” value is reported as 82 nm, the “λEM (wavelength of maximum emission)” value is listed as 449 nm and the “λEX (wavelength of maximum excitation)” value is listed as 367 nm.
Take `Oc1ccc2nc(-c3nc4ccccc4s3)sc2c1` [BBT, 2'-(2-Benzothiazolyl)-6'-hydroxy-benzothiazole]: the “pH at which the compound fully fluoresces” value in [2] is on record as 9-10 pH. In addition, in series [1], the “Stokes Shift” value is given as 142 nm, the “λEM (wavelength of maximum emission)” value is reported as 561 nm and the “λEX (wavelength of maximum excitation)” value is 419 nm. Moreover, the “ionization state (fluorescence)” value in series [3] (pH 10.3 (ALP assay)) is recorded as “fully ionized”. The “ionization state (fluorescence)” value in [3] (pH range of 6.0 to 8.0) was “only partially ionized”. For the same compound, the pKa (commonly the pH at which an ionisable group is half protonated) in series [4] is 8.5.
For the compound `O=C(O)Cc1ccc2nc(-c3nc4ccc(O)cc4s3)sc2c1` [BBTAA, 2'-(6-Hydroxybenzothiazol-2-yl)-benzothiazole-6'-acetic acid], in series [5] (Table 1), the EM was found to be 549 nm, the EX stood at 430 nm and the “Stokes Shift” value worked out at 119 nm.
Take `O=C(Cc1ccc2nc(-c3nc4ccc(O)cc4s3)sc2c1)NCCS(=O)(=O)O` [BBTAAT]: in series [5] (Table 1), the EM is on record as 548 nm, the EX is on record as 430 nm and the “Stokes Shift” value turned out to be 118 nm.
Taken in the same sequence, the figures for `OCCc1ccc2nc(-c3nc4ccc(O)cc4s3)sc2c1` [BBTE] were 550 nm, 422 nm and 128 nm.
Consider `Oc1ccc2nc(/C=C/c3nc4ccccc4o3)sc2c1` [BEBO, 2'-(2-benzoxazolylethenyl)-6'-hydroxybenzothiazole], for which, in series [5] (Table 2), the EM is recorded as 604 nm, the EX was 438 nm and the “Stokes Shift” value is listed as 166 nm.
Taken in the same sequence, the figures for `Oc1ccc2nc(/C=C/c3nc4ccccc4s3)sc2c1` [BEBT, 2'-(2-benzothiazolylethenyl)-6'-hydroxybenzothiazole] were 620 nm, 440 nm and 180 nm.
For `O=S(=O)(O)CCc1ccc2nc(/C=C/c3nc4ccc(O[C@@H]5O[C@H](CO)[C@H](O)[C@H](O)[C@H]5O)cc4s3)sc2c1` [BEBTESG, 2'-((6-Sulfoethyl-2-benzothiazolyl)ethenyl)-6'-hydroxybenzothiazole β-D-Galactoside], at β-galactosidase, the “fluorescence on hydrolysis by β-galactosidase” value was “orange red fluorescence was quickly developed”.
Take `O=P(O)(O)Oc1ccc2nc(/C=C/c3nc4ccccc4s3)sc2c1` [BEBTP, 2'-(2-Benzothiazolylethenyl)-6'-hydroxybenzothiazole phosphate di(2-amino-2-methyl 1,3-propanediol) salt]: the “fluorescence on hydrolysis by alkaline phosphatase” value in [6] is listed as “orange red fluorescence was quickly developed”.
Consider `Oc1ccc2nc(-c3nc4ccccc4s3)sc2c1Cl` [CIBBT, 2'-(Benzothiazol-2-yl)-7'-chloro-6'-hydroxybenzothiazole], for which, in series [5] (Table 1), the EM is listed as 550 nm, the EX was determined as 435 nm and the “Stokes Shift” value was found to be 115 nm. In addition, the “pH at which maximum fluorescence is reached” value in series [2] (FIG. 3) is given as 7-8 pH.
Turning to `O=C(O)Cc1ccc2nc(-c3nc4ccc(O)c(Cl)c4s3)sc2c1` [CIBBTAA, 2'-(7-Chloro-6-hydroxybenzothiazol-2-yl)-benzothiazole-6'-acetic acid], in series [5] (Table 1), the EM is given as 545 nm, the EX is reported as 437 nm and the “Stokes Shift” value is 108 nm.
With `CCN1C(=CC=Cc2oc3ccccc3[n+]2CCCCCC(=O)[O-])Oc2ccccc21` [Cy2], in series [1], the “Stokes Shift” value is reported as 18 nm, the “λEM (wavelength of maximum emission)” value is reported as 506 nm and the “λEX (wavelength of maximum excitation)” value is listed as 489 nm.
For `Oc1ccc2nc(-c3nc4ccccc4s3)sc2c1F` [FBBT, 2'-(2-Benzothiazolyl)-7'-fluoro-6'-hydroxybenzothiazole], in series [5] (Table 1), the EM stood at 552 nm, the EX is 423 nm and the “Stokes Shift” value worked out at 129 nm.
For the compound `O=C1OC2(c3ccc(O)cc3Oc3cc(O)ccc32)c2ccccc21` [Fluorescein], in series [1], the “Stokes Shift” value is 28 nm, the “λEM (wavelength of maximum emission)” value was 520 nm and the “λEX (wavelength of maximum excitation)” value was 492 nm.
Take `CCC(=O)Oc1ccc2nc(-c3nc4ccccc4s3)sc2c1` [Propionyl BBT, 2'-(2-Benzothiazolyl)-6'-hydroxybenzothiazole Propionate]: in [7], the “substrate activity for porcine liver esterase” value is “very effective substrate”. For the same compound, the “substrate activity for lipases” value in series [8] is listed as “very poor substrate”.
As for `CCN(CC)c1ccc2c(-c3ccccc3C(=O)O)c3ccc(=[N+](CC)CC)cc-3oc2c1` [Rhodamine], in series [1], the “Stokes Shift” value is on record as 35 nm, the “λEM (wavelength of maximum emission)” value was 575 nm and the “λEX (wavelength of maximum excitation)” value is 540 nm.
For the compound `O=S(=O)(O)c1c(O)ccc2nc(-c3nc4ccccc4s3)sc12` [SBBT], in [5] (Table 1), the EM came to 538 nm, the EX turned out to be 420 nm and the “Stokes Shift” value is recorded as 118 nm.
Take `CCCCCCCC/C=C\CCCCCCCC(=O)Oc1ccc2nc(-c3nc4ccccc4s3)sc2c1` [oleoyl BBT, 2'-(2-Benzothiazolyl)-6'-hydroxybenzothiazole Oleate]: the “substrate activity for porcine liver esterase” value in [7] was “low activity”. For the same compound, the “substrate activity for lipases” value in series [8] is “high activity”.
With `Oc1ccc2nc(/C=C/c3nc4c(ccc5ccccc54)o3)sc2c1` [α-BENO], in [5] (Table 2), the EM is recorded as 585 nm, the EX was 432 nm and the “Stokes Shift” value amounted to 153 nm.
With `Oc1ccc2nc(/C=C/c3nc4c(ccc5ccccc54)s3)sc2c1` [α-BENT], in [5] (Table 2), the EM is reported as 624 nm, the EX was 443 nm and the “Stokes Shift” value amounted to 181 nm.
Turning to `Oc1ccc2nc(/C=C/c3nc4ccc5ccccc5c4o3)sc2c1` [β-BENO], in [5] (Table 2), the EM amounted to 602 nm, the EX worked out at 443 nm and the “Stokes Shift” value is given as 159 nm.
“BBTE-TCTCCCAGCGTGCGCCAT: oligonucleotide (SEQ ID NO: 1) labeled at the 5'-end with the BBTE phosphoramidite (5' {BBTE}, sugars by position and backbone not given here)”: the “fluorescence on DNA electrophoresis gel” value in series [9] is on record as “strong yellow fluorescent band”.
